Laboratory results as given in patent US20220089575A1, “FARNESOID X RECEPTOR AGONISTS AND USES THEREOF” (Metacrine, Inc., priority 2017, published 2022).

Molecular target: T1, hFXR (Homo sapiens, UniProt Q96RI1)
T1 construct: expressed in transfected cells; host or cells: CV-1 cells
T1 sequence (Q96RI1 1-486): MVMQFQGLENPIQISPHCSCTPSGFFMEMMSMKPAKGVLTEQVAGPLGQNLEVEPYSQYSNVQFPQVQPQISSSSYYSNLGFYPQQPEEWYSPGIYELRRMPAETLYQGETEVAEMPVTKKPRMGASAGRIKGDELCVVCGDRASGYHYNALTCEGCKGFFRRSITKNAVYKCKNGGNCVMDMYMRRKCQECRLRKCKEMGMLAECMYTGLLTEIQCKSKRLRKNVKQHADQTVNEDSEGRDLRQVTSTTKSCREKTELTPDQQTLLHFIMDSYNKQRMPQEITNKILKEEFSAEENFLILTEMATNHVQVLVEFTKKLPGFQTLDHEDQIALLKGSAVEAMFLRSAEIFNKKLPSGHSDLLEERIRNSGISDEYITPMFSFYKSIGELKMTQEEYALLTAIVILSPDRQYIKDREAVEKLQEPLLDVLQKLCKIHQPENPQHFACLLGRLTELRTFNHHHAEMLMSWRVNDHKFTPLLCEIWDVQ
T1 sequence (P19793 1-462 partner): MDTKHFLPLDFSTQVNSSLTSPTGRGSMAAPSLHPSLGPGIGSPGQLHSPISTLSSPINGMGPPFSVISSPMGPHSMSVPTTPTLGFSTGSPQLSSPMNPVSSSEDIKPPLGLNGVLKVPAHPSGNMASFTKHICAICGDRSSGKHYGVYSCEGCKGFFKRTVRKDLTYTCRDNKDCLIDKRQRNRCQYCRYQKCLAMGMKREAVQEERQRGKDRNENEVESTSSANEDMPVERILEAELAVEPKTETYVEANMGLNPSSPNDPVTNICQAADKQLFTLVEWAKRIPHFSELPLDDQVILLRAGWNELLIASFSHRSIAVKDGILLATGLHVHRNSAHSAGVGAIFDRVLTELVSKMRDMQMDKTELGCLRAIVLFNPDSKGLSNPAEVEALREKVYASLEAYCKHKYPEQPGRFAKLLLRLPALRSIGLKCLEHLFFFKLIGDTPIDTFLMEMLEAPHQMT
Assay: In Vitro FXR Assay (TK): TK-ECRE-luc reporter in transfected CV-1 cells
Assay type: cell-based
Settings: 18 hrs, luminescence, maximum efficacy of <25% of the Fexarmine control classified as '+'
Experimental: CV-1 cells were seeded at a density of 2,000,000 cells in a T175 flask with DMEM+10% charcoal double-stripped FBS and incubated at 37° C. in 5% CO2 for 18 h (O/N).
After 18 h of incubation, the medium in the T175 flask was changed with fresh DMEM+10% charcoal super-stripped serum. In a polypropylene tube, 2500 μL OptiMEM (Life Technologies, Cat #31985-062) was combined with expression plasmids for hFXR, hRXR, TK-ECRE-luc and pCMX-YFP. The tube was then briefly vortexed and incubated at room temperature for 5 minutes. Transfection reagent (X-tremeGENE HP from Roche, Cat #06 366 236 001) was added to the OptiMEM/plasmid mixture vortexed and incubated at room temperature for 20 minutes. Following incubation, the transfection reagent/DNA mixture complex was added to cells in the T175 flask and the cells were incubated at 37° C. in 5% CO2 for 18 h (O/N).
Compounds were serially diluted in DMSO and added to transfected CV-1 cells. The cells were then incubated for 18 hrs. The next day cells were lysed and examined for luminescence.

Row | EC50 | Compound
1 | ≤ 250 nM | CNC(=O)O[C@H]1CC[C@H](C(=O)N(C[C@H]2CC[C@H](c3ccc(OC)c(C#N)n3)CC2)c2cccc(-c3cnn(C(C)C)c3)c2)CC1 [Compound 5.28, trans-4-(((trans-4-(6-Cyano-5-methoxypyridin-2-yl)cyclohexyl)methyl)(3-(1-isopropyl-1H-pyrazol-4-yl)phenyl)carbamoyl)cyclohexyl methylcarbamate]
2 | ≥ 1000 nM | COc1ccc([C@H]2CC[C@H](CN(c3cccc(-c4cnn(C(C)C)c4)c3)C(=O)[C@H]3CC[C@H](NCC(=O)O)CC3)CC2)cc1C [Compound 29, 2-((trans-4-((3-(1-Isopropyl-1H-pyrazol-4-yl)phenyl)((trans-4-(4-methoxy-3-methylphenyl)cyclohexyl)methyl)carbamoyl)cyclohexyl)amino)acetic Acid]
3 | ≤ 250 nM | COc1ccc([C@H]2CC[C@H](CN(c3cc(-c4coc(C5CC5)n4)ccn3)C(=O)[C@H]3CC[C@H](OC(=O)N4CC(OC)C4)CC3)CC2)nc1C [Compound 7.76, trans-4-((4-(2-Cyclopropyloxazol-4-yl)pyridine-2-yl)((trans-4-(5-methoxy-6-methylpyridin-2-yl)cyclohexyl)methyl)carbamoyl)cyclohexyl 3-methoxyazetidine-1-carboxylate]
4 | ≤ 250 nM | COc1ccc([C@H]2CC[C@H](CN(c3cc(-c4coc(C5CC5)n4)ccn3)C(=O)[C@H]3CC[C@H](OC(=O)N4CC(C(C)(C)O)C4)CC3)CC2)nc1C [Compound 7.99, trans-4-((4-(2-Cyclopropyloxazol-4-yl)pyridine-2-yl)((trans-4-(5-methoxy-6-methylpyridin-2-yl)cyclohexyl)methyl)carbamoyl)cyclohexyl 3-(2-hydroxypropan-2-yl)azetidine-1-carboxylate]
5 | ≤ 250 nM | COc1ccc([C@H]2CC[C@H](CN(c3cc(-c4coc(C5CC5)n4)ccn3)C(=O)[C@H]3CC[C@H](OC(=O)NCC(O)C(C)C)CC3)CC2)nc1C (stereo partly drawn) [Compound 6.89, trans-4-((4-(2-Cyclopropyloxazol-4-yl)pyridin-2-yl)((trans-4-(5-methoxy-6-methylpyridin-2-yl)cyclohexyl)methyl)carbamoyl)cyclohexyl (2-hydroxy-3-methylbutyl)carbamate]
6 | ≤ 250 nM | COc1ccc([C@H]2CC[C@H](CN(c3cc(-c4coc(C5CC5)n4)ccn3)C(=O)[C@H]3CC[C@H](OC(=O)N4CC(C(C)(C)C)C4)CC3)CC2)nc1C [Compound 7.103, trans-4-((4-(2-Cyclopropyloxazol-4-yl)pyridine-2-yl)((trans-4-(5-methoxy-6-methylpyridin-2-yl)cyclohexyl)methyl)carbamoyl)cyclohexyl 3-(tert-butyl)azetidine-1-carboxylate]
7 | ≤ 250 nM | CNC(=O)O[C@H]1CC[C@H](C(=O)N(C[C@H]2CC[C@H](c3ccc(OC)c(C)c3)CC2)c2cccc(-c3ccc(N(C)C)nc3)c2)CC1 [Compound 5.36, trans-4-((3-(6-(Dimethylamino)pyridine-3-yl)phenyl)((trans-4-(4-methoxy-3-methylphenyl)cyclohexyl)methyl)carbamoyl)cyclohexyl methylcarbamate]
8 | ≤ 250 nM | COc1ccc([C@H]2CC[C@H](CN(c3cccc(-c4cnn(C(C)C)c4)c3)C(=O)[C@H]3CC[C@H](OC(=O)NCCO)CC3)CC2)nc1C [Compound 6.15, trans-4-((3-(1-Isopropyl-1H-pyrazol-4-yl)phenyl)((trans-4-(5-methoxy-6-methylpyridin-2-yl)cyclohexyl)methyl)carbamoyl)cyclohexyl (2-hydroxyethyl)carbamate]
9 | ≤ 250 nM | COc1ccc([C@H]2CC[C@H](CN(c3cccc(-c4cnn(C(C)C)c4)c3)C(=O)[C@H]3CC[C@H](CCC(=O)O)CC3)CC2)cc1C [Compound 20.16, 3-(trans-4-((3-(1-Isopropyl-1H-pyrazol-4-yl)phenyl)((trans-4-(4-methoxy-3-methylphenyl)cyclohexyl)methyl)carbamoyl)cyclohexyl)propanoic acid]
10 | ≤ 250 nM | COc1ccc([C@H]2CC[C@H](CN(c3cccc(-c4cnn(C5CC5)c4)c3)C(=O)[C@H]3CC[C@H](OC(=O)N4CC(CC(=O)O)C4)CC3)CC2)cc1C [Compound 7.42, 2-(1-(((trans-4-((3-(1-Cyclopropyl-1H-pyrazol-4-yl)phenyl)((trans-4-(4-methoxy-3-methylphenyl)cyclohexyl)methyl)carbamoyl)cyclohexyl)oxy)carbonyl)azetidin-3-yl)acetic acid]
11 | ≤ 250 nM | COc1ccc([C@H]2CC[C@H](CN(c3cccc(-c4coc(C5CC5)n4)c3)C(=O)[C@H]3CC[C@H](OC(=O)N4CC(O)C4)CC3)CC2)nc1C [Compound 7.66, trans-4-((3-(2-Cyclopropyloxazol-4-yl)phenyl)((trans-4-(5-methoxy-6-methylpyridin-2-yl)cyclohexyl)methyl)carbamoyl)cyclohexyl 3-hydroxyazetidine-1-carboxylate]
12 | ≤ 250 nM | COc1ccc([C@H]2CC[C@H](CN(c3cc(-c4coc(C5CC5)n4)ccn3)C(=O)[C@H]3CC[C@H](OC(=O)N4CC(C)C4)CC3)CC2)nc1C [Compound 7.89, trans-4-((4-(2-Cyclopropyloxazol-4-yl)pyridine-2-yl)((trans-4-(5-methoxy-6-methylpyridin-2-yl)cyclohexyl)methyl)carbamoyl)cyclohexyl 3-methylazetidine-1-carboxylate]
13 | ≤ 250 nM | CN(C)c1ccc([C@H]2CC[C@H](CN(c3cccc(-c4cnn(C5CC5)c4)c3)C(=O)[C@H]3CC[C@H](CC(=O)O)CC3)CC2)cn1 [Compound 20.12, 2-(trans-4-((3-(1-Cyclopropyl-1H-pyrazol-4-yl)phenyl)((trans-4-(6-(dimethylamino)pyridin-3-yl)cyclohexyl)methyl)carbamoyl)cyclohexyl)acetic acid]
14 | ≤ 250 nM | COc1ccc([C@H]2CC[C@H](CN(c3cccc(-c4cnn(C(C)C)c4)c3)C(=O)[C@H]3CC[C@H](OC(=O)N4CC(S(C)(=O)=O)C4)CC3)CC2)nc1C [Compound 6.42, trans-4-((3-(1-Isopropyl-1H-pyrazol-4-yl)phenyl)((trans-4-(5-methoxy-6-methylpyridin-2-yl)cyclohexyl)methyl)carbamoyl)cyclohexyl 3-(methylsulfonyl)azetidine-1-carboxylate]
15 | ≤ 250 nM | COc1ccc([C@H]2CC[C@H](CN(c3cccc(-c4cnn(C5CC5)c4)c3)C(=O)[C@H]3CC[C@H](OC(=O)N4CC(O)C4)CC3)CC2)cc1C#N [Compound 7.19, trans-4-(((trans-4-(3-Cyano-4-methoxyphenyl)cyclohexyl)methyl)(3-(1-cyclopropyl-1H-pyrazol-4-yl)phenyl)carbamoyl)cyclohexyl 3-hydroxyazetidine-1-carboxylate]
16 | ≤ 250 nM | COc1ccc([C@H]2CC[C@H](CN(c3cccc(-c4coc(C5CC5)n4)c3)C(=O)[C@H]3CC[C@H](C(=O)OC)CC3)CC2)nc1C#N [Compound 18.24, trans-Methyl 4-(((trans-4-(6-cyano-5-methoxypyridin-2-yl)cyclohexyl)methyl)(3-(2-cyclopropyloxazol-4-yl)phenyl)carbamoyl) cyclohexanecarboxylate]
17 | ≤ 250 nM | COc1ccc(C23CCC(CN(c4cccc(-c5cnn(C6CC6)c5)c4)C(=O)[C@H]4CC[C@H](OC(=O)NCCO)CC4)(CC2)CC3)cc1C [Compound 4.04, 4-((3-(1-Cyclopropyl-1H-pyrazol-4-yl)phenyl)((4-(4-methoxy-3-methylphenyl)bicyclo[2.2.2]octan-1-yl)methyl)carbamoyl)cyclohexyl (2-hydroxyethyl)trans-carbamate]
18 | ≤ 250 nM | COc1ccc([C@H]2CC[C@H](CN(c3cccc(-c4cnn(C(C)C)c4)c3)C(=O)[C@H]3CC[C@H](OC(=O)NCCO)CC3)CC2)cc1C [Compound 6.09, trans-4-((3-(1-Isopropyl-1H-pyrazol-4-yl)phenyl)((trans-4-(4-methoxy-3-methylphenyl)cyclohexyl)methyl)carbamoyl)cyclohexyl (2-hydroxyethyl) carbamate]
